The values below come from patent US8318184B2, “MGLU2 agonists” (Eli Lilly and Company, priority 2009, dated 2012).

The test system of data set [1] is Sprague-Dawley rats. Briefly: Reversal of Phencyclidine (PCP)-Induced Hyperlocomotor Activity in Rats. The format is in vivo. Conditions: Rattus norvegicus, p.o., overnight fasted, 4 hours prior to 5 mg/kg PCP. An excerpt: Administration of NMDA receptor antagonists, such as ketamine or phencyclidine (PCP), produces psychotomimetic-like effects in humans that are similar to those symptoms observed in patients with schizophrenia.
Motor activity is monitored by placing individual male, Sprague-Dawley (Harlan, Indianapolis, Ind.) rats in transparent, plastic shoe-box cages of the dimensions 45×25×20 cm, with 1 cm depth of wood chips as bedding, and a metal grill on top of the cage. Motor monitors (Kinder Scientific) consist of a rectangular rack of 12 photobeams arranged in an 8×4 formation, (or a high density grouping of 22 in a 15×7 pattern) at a height of 5 cm, with a second rack (for measuring rearing behaviors) at a height of 15 cm. The shoe box cage is placed inside of these racks, with the racks on a 3 foot high tabletop in an isolated room. A compound of the present invention is dosed (intraperitoneal route (i.p.), non-prodrug) within a range of 0.3-10 mg/kg, 30 minutes prior to a 5 mg/kg challenge dose of phencyclidine (PCP). A compound of the present invention is dosed (oral route, prodrug) within a range of 0.3-30 mg/kg, in overnight fasted rats, 4 hours prior to a 5 mg/kg challenge dose of PCP. On the test day, rats are placed in the test cage and allowed to acclimate for 30 minutes prior to PCP challenge; rats are monitored for an additional 60 minutes following PCP administration.
Data analysis and ED50 calculations are conducted using GraphPad Prism (San Diego, Calif. USA). Power analyses have determined that 8-10 rats per group are needed to have appropriate statistical power for detecting treatment differences (power=0.8). A one-way analysis of variance (ANOVA) with a post-hoc Dunnett's multiple comparison test is conducted on the total 60 minute locomotor activity. ED50 calculations are performed using non-linear regression curve fitting on percent reversal transformed data for each dose.

In a further data set the target is T1, hPepT1 (Homo sapiens, UniProt P46059).
T1 construct: expressed in transfected cells; host or cells: HeLa cells (ATCC), transient transfection with FuGene6
T1 sequence (P46059 1-708): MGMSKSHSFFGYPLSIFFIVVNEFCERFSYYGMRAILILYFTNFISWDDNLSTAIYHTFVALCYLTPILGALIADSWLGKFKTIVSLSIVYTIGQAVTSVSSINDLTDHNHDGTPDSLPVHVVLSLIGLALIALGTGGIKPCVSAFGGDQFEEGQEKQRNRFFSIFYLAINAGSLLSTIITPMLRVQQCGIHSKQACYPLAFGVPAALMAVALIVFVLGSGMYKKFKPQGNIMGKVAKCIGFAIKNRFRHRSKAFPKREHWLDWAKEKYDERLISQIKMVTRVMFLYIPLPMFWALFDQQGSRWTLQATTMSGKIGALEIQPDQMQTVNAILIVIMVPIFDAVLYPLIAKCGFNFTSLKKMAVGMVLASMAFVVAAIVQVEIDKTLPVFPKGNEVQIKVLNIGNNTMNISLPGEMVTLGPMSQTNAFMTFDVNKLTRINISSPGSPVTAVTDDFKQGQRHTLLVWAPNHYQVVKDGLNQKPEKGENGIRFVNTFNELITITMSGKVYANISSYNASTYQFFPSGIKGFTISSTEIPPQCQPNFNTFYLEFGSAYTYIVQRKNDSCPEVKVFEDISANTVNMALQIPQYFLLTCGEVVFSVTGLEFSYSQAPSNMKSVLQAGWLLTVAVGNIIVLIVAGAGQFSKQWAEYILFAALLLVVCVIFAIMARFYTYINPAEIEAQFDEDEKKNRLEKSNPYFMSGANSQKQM
Briefly: In Vitro PepT1 GlySar Inhibition Screen and IC50 Determination. The format is cell-based. Conditions: for inhibition at 5000 µM: 5 mM, pH 6.0, PepT1 transiently transfected HeLa cells, read-out: hPepT1 [3H]Gly-Sar uptake inhibition at 5 mM. The method, then:
PepT1 assays are established to examine the ability of the amino acid prodrug compounds to interact with the intestinal absorption transporter PepT1.
HeLa cells, […], (American Type Culture Collection) are grown in Hyclone Medium (Invitrogen, Cat# SH30243) containing 10% fetal bovine serum (FBS), 0.1 mM non essential amino acids (NEAA), and 100 units/mL penicillin with 100 μg/mL streptomycin at 37° C. in a 5% CO2 humidified atmosphere. The cell line is used for up to 40 passages and then discarded. Frozen cells in 1 ml vials are thawed in water bath for 1-2 minutes and added to 5 mL of cell medium at 37° C. Each of the T-flasks is provided with 8.5 mL of the fresh medium and 1.5 mL of the cell stock. Cells are passaged twice during a week. This is achieved by rinsing the flasks with 10 mL of phosphate buffered saline-ethylene diaminetetra acetic acid (PBS-EDTA), adding 2 mL of trypsin for 2-5 minutes, to detach the cells, and adding 8 mL of fresh medium to inhibit further activity of trypsin. Each new flask receives a combination of 8.5 mL of fresh medium and 1.5 mL of cell stock, in order to obtain 1:6 cell dilution. Cells are incubated at 37° C., until ready for the uptake study.
Cells that are 70-80% confluent in the T-flasks are plated 1 day prior to the transfection procedure. The flask with the cell stock is treated with PBS-EDTA and trypsin to detach the cells, and transfection medium is used from this point. Transfection medium consists of Dulbecco's Modified Eagle Medium (DMEM)+NEAA. To each well, 0.5 mL of the cell mixture is added (1.3×10^5 is the desired cell concentration) and the cells are incubated at 37° C. overnight. Twenty four hours before the assay, cells are transfected with PEPT1. Transfection mixture is prepared by mixing 600 μL of serum free transfection medium, 18 μL of FuGene6 (Roche Diagnostics), and 11 μg of the PepT1 DNA. The transfection reagent-DNA complex is incubated for 20 minutes and 24 μL of the reagent-DNA complex is added to each well.
J. Pharm. Exper Ther. 310:437-445). […] Uptake media consists of 140 mM NaCl, 5.4 mM KCl, 1.8 mM CaCl2, 0.8 mM MgSO4, 5 mM Glucose, 25 mM tris(hydroxymethyl)aminomethane buffer (TRIS). The solution is then brought to pH 6.0 using 2-(N-morpholino)ethanesulfonic acid. The incubation volume is 500 μL and is performed at room temperature for 3 minutes. To stop the uptake at the conclusion of the incubation time, the uptake media is aspirated off of the cell monolayer and 500 μL of ice cold PBS added to the well. The cells are washed 3 times with 500 μL of room temperature PBS without Ca^+2 and Mg^+2. The cells are then lysed with 300 μL of 1% Triton X100 H2O solution. […] A no inhibitor control is established and the percent inhibition of each prodrug is calculated with respect to this control.
The incubation and sampling procedures are exactly the same as the PepT1 screen described above. […]

For data set [2] the following is noted: 1 h, 10 µM, pH 7.4.
Description: Frozen human duodenum intestinal homogenates (1:2 tissue:buffer ratio using 100 mM Tris Phosphate buffer, pH 7.4) are obtained from Celsius In Vitro Technologies (Baltimore, Md.) that were both phenylmethylsulphonylfluoride (PMSF) and EDTA free.
Each lot of human duodenum is obtained from a single donor and the intestine is scraped and the sections are frozen separate. All original tissue collections are performed at 4° C. and immediately frozen at −70° C. Human intestinal homogenates are thawed and diluted to a final protein concentration of 0.5 mg/mL in 100 mM PBS buffer, pH 7.4 immediately prior to the incubations.
Incubations are conducted in 96-well plates and all prodrug compounds are run in duplicate on each day. Stock prodrug compound solutions are prepared in water at a concentration of 1 mM. A 200 μL aliquot of 0.5 mg/mL intestinal homogenate and 196 μL of 100 mM PBS buffer are placed in a 96-well plate in a 37° C. water bath. Using a 96-well pipettor, 4 μL of the 1 mM prodrug compound solution is transferred into the homogenate. Immediately after addition of the prodrug compound (time zero) and after 1 hour incubation, 50 μL samples of the incubation mixture are removed using an automated disposable simultaneous 96 well pipettor and added directly to 200 μL of methanol quench solution containing 100 ng/mL of Internal Standard. The samples are then centrifuged at 3500 rpm for 5 minutes at 10° C. The supernatant (200 μL) is transferred to a final 96 well PCR plate and sealed for analysis by LC/MS/MS.
Concentrations of hydrolyzed compounds of the present invention in the incubation mixtures are determined using LC/MS/MS detection on a Sciex API 4000 quadrapole mass spectrometer with Analyst version 1.4.2, TurboIonSpray, positive ionization, and Selected Reaction Monitoring (SRM). A Waters Atlantis® T3 (20×2.1 mm, 5 μM) HPLC column is used at ambient temperature with a flow rate of 1.0 mL/min and a mobile phase gradient from 0.1% mobile phase A to 99% mobile phase A. Mobile phase A is 1000:5 water:heptafluorobuteric acid and mobile phase B is 1:1 methanol:glacial acetic acid.
Concentrations of hydrolyzed compounds of the present invention in the intestinal incubation mixtures are determined from standard curves prepared by replicate two-fold dilution starting at 10 μM in 100 mM PBS pH 7.4 and subsequently quenched with methanol-internal standard solution identical to the samples. Averages and standard deviations are calculated using Microsoft® Office Excel® 2007. Amount of hydrolysis is determined as a molar percentage of compound formed relative to prodrug compound concentration added. […] Final values are then normalized relative to the formation of Internal Compound Drug A.
The test system of a further data set is NIH-Swiss mice. The data set is described as follows: Forced Swim Test in mice. Particulars: positive control over multiple studies. Type of data set: in vivo, mouse. The method, then:
(§1) In this assay, mechanisms with purported antidepressant-like activity decrease immobility in a brief inescapable forced swim episode.
The forced-swim test is conducted with both mice (male, NIH-Swiss mice, 20-25 g, Harlan Sprague-Dawley, Indianapolis, Ind.) and rats (male, Sprague-Dawley rats, 250-350 g, Harlan Sprague-Dawley, Indianapolis, Ind.). Mice are placed in clear plastic cylinders (diameter 10 cm; height: 25 cm) filled to 6 cm with 22-25° C. water for six min. The duration of immobility is recorded during the last 4 min of a six-minute trial. Rats are treated similarly, albeit in clear plastic cylinders of larger dimensions (diameter: 18 cm; height: 40 cm) filled with water (22-25° C.) to a depth of 16 cm for 15 min. Additionally, mice receive a single forced swim exposure; rats receive two, 5-min sessions separated by 24 hours (data is recorded only on Day 2). […] Imipramine is used as a positive control for these studies. […] Compounds are in a clear solution. The amount of time spent immobile (defined as movements only necessary to keep the subject's head above water) is the dependent measure and recorded by an observer blinded to the drug treatment of the subjects. Data are analyzed by post-hoc Dunnett's test with alpha level set at 0.05. The mouse version of the forced swim test is most commonly used.

Data set [3] has as its system Sprague-Dawley rats. The data set is described as follows: Forced Swim Test in rats. The format is in vivo, rat. Particulars: 30 mg/kg. The method, then:
as §1
The forced-swim test is conducted with both mice (male, NIH-Swiss mice, 20-25 g, Harlan Sprague-Dawley, Indianapolis, Ind.) and rats (male, Sprague-Dawley rats, 250-350 g, Harlan Sprague-Dawley, Indianapolis, Ind.). Mice are placed in clear plastic cylinders (diameter 10 cm; height: 25 cm) filled to 6 cm with 22-25° C. water for six min. The duration of immobility is recorded during the last 4 min of a six-minute trial. Rats are treated similarly, albeit in clear plastic cylinders of larger dimensions (diameter: 18 cm; height: 40 cm) filled with water (22-25° C.) to a depth of 16 cm for 15 min. Additionally, mice receive a single forced swim exposure; rats receive two, 5-min sessions separated by 24 hours (data is recorded only on Day 2). The compound of Example 1 is tested in mice using intraperitoneal dosing (1, 3, or 10 mg/kg), 60 min prior to testing. […] Example 2 is administered 5 min following the first forced swim exposure and 120 min prior to the test session on Day 2. Imipramine is used as a positive control for these studies. Compounds are formulated in a water vehicle, with minimal NaOH being added to Example 1 and Example 2. Compounds are in a clear solution. The amount of time spent immobile (defined as movements only necessary to keep the subject's head above water) is the dependent measure and recorded by an observer blinded to the drug treatment of the subjects. Data are analyzed by post-hoc Dunnett's test with alpha level set at 0.05. The mouse version of the forced swim test is most commonly used. An ED60 value (60% of the amount of immobility relative to vehicle controls) is calculated to estimate potency of the test compounds.

Molecules are shown by their SMILES.

One may read the ED50 as the dose at which the effect has come halfway, by size or by number of responders. For orientation: inhibition means the share of the control response that was lost under treatment. The IC50 is the concentration that inhibits the measured activity by half. Take `CSCC[C@H](N)C(=O)N[C@@]1(C(=O)O)C[C@@H](Sc2nnc[nH]2)[C@H]2[C@H](C(=O)O)[C@H]21.Cl` [Example 3, (1R,2S,4R,5R,6R)-2-[[(2S)-2-Amino-4-methylsulfanyl-butanoyl]amino]-4-(4H-1,2,4-triazol-3-ylsulfanyl)bicyclo[3.1.0]hexane-2,6-dicarboxylic acid hydrochloride]: the ED50 with Sprague-Dawley rats [1] was 5.46 mg/kg. Also, the inhibition at 5000 µM at hPepT1 is 51%. For the same compound, the half-inhibitory concentration (IC50) at hPepT1 (0.0625 to 25 mM, PepT1 transfected HeLa cells, read-out: hPepT1 [3H]Gly-Sar uptake inhibition IC50) came to 5.36 mM. Also, the “human intestinal hydrolysis relative to Internal Prodrug Compound A” value in data set [2] was 53%.

Consider `CC(C)C[C@H](N)C(=O)N[C@@]1(C(=O)O)C[C@@H](Sc2nnc[nH]2)[C@H]2[C@H](C(=O)O)[C@H]21.Cl` [Example 4, (1R,2S,4R,5R,6R)-2-[[(2S)-2-Amino-4-methyl-pentanoyl]amino]-4-(4H-1,2,4-triazol-3-ylsulfanyl)bicyclo[3.1.0]hexane-2,6-dicarboxylic acid hydrochloride], for which the inhibition at 5000 µM on hPepT1 stood at 32%. Moreover, in data set [2], the “human intestinal hydrolysis relative to Internal Prodrug Compound A” value came out at 45%.

As to `Cl.NCC(=O)N[C@@]1(C(=O)O)C[C@@H](Sc2nnc[nH]2)[C@H]2[C@H](C(=O)O)[C@H]21` [Example 5, (1R,2S,4R,5R,6R)-2-[(2-Aminoacetyl)amino]-4-(4H-1,2,4-triazol-3-ylsulfanyl)bicyclo[3.1.0]hexane-2,6-dicarboxylic acid hydrochloride], on hPepT1, the inhibition at 5000 µM was 44%. In addition, the “human intestinal hydrolysis relative to Internal Prodrug Compound A” value in data set [2] is 35%.

In the case of `N[C@@]1(C(=O)OCc2ccccc2)C[C@@H](Sc2nnc[nH]2)[C@H]2[C@H](C(=O)OCc3ccccc3)[C@H]21` [Example 6, Dibenzyl (1R,2S,4R,5R,6R)-2-amino-4-(4H-1,2,4-triazol-3-ylsulfanyl)bicyclo[3.1.0]hexane-2,6-dicarboxylate], the “human intestinal hydrolysis relative to Internal Prodrug Compound A” value in data set [2] stood at 2%.

As for `CN(C)CCCN1c2ccccc2CCc2ccccc21` [imipramine, reference compound], in the data set with NIH-Swiss mice, the ED60 was 8.6 ± 1.2 mg/kg and the “effect, % of vehicle immobility levels” value was determined as 39±1.2%. In addition, the “immobility as % of vehicle controls” value in the data set with Sprague-Dawley rats [3] amounted to 70%.
